Laboratory results: publication PMC5078989, “Targeted inhibition of the COP9 signalosome for treatment of cancer” (Nature Communications, 2016)

Tested on: panel of cancer cell lines
Test: Cell viability (CellTiter-Glo) dose-response across cancer cell line panel;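 as to EC50: after 72 h compound incubation with CellTiter-Glo ATP readout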
Assay type: cell-based, human
Conditions: for EC50: Homo sapiens
Description: Next, we explored the effect of CSN5 inhibition on the viability of cancer cells. To obtain a comprehensive picture, we generated dose–response curves with a CSN5 inhibitor across more than 500 cancer cell lines in a previously described standardized setting[47] (Supplementary Data 1).
A standardized CellTiter-Glo Assay (Promega #G7570) based on the quantification of ATP was applied according to the manufacturer's protocol to measure the amount of viable cells in culture. In brief, cells were seeded into 384-well plates at optimal density for each cell line. After 4 h, compounds were added at different concentrations in growth medium and incubated for another 72 h in a humidifying chamber at 37 °C and 5% CO2. […] EC50 values were calculated from the plot of percentage of inhibition versus inhibitor concentration using the nonlinear regression analysis software Origin 7.5SR6 (OriginLab Corp.).

EC50 (59M): 2650 nM
EC50 (92.1): 3880 nM
EC50 (639-V): 723 nM
EC50 697: 477 nM
EC50 (769-P): 13900 nM
EC50 (786-0, 786-O): 1050 nM
EC50 (1321-N1, 1321N1): 3680 nM
EC50 (8505C): 829 nM
EC50 (A4/Fuk): 120 nM
EC50 (A101D): 372 nM
EC50 (A 172, A172): 13400 nM
EC50 (A204, A-204): 206 nM
EC50 (A498, A-498): 1400 nM
EC50 (A549, A549): 1410 nM
EC50 (A673, A-673): 431 nM
EC50 (A704, A-704): 1640 nM
EC50 (A2058, A2058): 2050 nM
EC50 (A2780, A2780): 279 nM
EC50 (A-375, A-375): 690 nM
EC50 (ABC-1, ABC-1): 485 nM
EC50 (ACC-MESO-1, ACC-MESO-1): 2400 nM
EC50 (AM-38, AM-38): 983 nM
EC50 (AML-193): 3210 nM
EC50 (AN3-CA, AN3 CA): 2230 nM
EC50 (ASPC1, AsPC-1): 4740 nM
EC50 (AU565, AU565): 1350 nM
EC50 (BC-3C): 2030 nM
EC50 (BEN): 12500 nM
EC50 (BFTC-909, BFTC-909): 7580 nM
EC50 (BICR 6): 1110 nM
EC50 (BICR 16): 1020 nM
EC50 (BICR 31): 1210 nM
EC50 (BT-16, BT-16): 3280 nM
EC50 (BT-549, BT-549): 296 nM
EC50 (BXPC-3, BxPC-3): 6030 nM
EC50 (C3A): > 30000 nM
EC50 (C32, C32): 830 nM
EC50 (CAKI-1, Caki-1): 845 nM
EC50 (CAKI-2, Caki-2): 3040 nM
EC50 (CAL-12T): 474 nM
EC50 (CAL-27, CAL 27): 713 nM
EC50 (CAL-29): 5690 nM
EC50 (CAL-54, CAL-54): 1170 nM
EC50 (CAL-85-1, CAL-85-1): 7990 nM
EC50 (CAL-120, CAL-120): 6810 nM
EC50 (CAL-148, CAL-148): 1680 nM
EC50 (CAMA-1, CAMA-1): 20500 nM
EC50 (CAPAN-1, Capan-1): 643 nM
EC50 (CAS-1): 705 nM
EC50 (CCRF-HSB-2, CCRF-HSB-2): 150 nM
EC50 (CEM/C1, CEMC1): 343 nM
EC50 (CFPAC-1, CFPAC-1): 3540 nM
EC50 (CL-14): > 30000 nM
EC50 (CL-34): 3880 nM
EC50 (CMK): 1800 nM
EC50 (CMK-86, CMK-86): 1720 nM
EC50 (COLO 201, COLO 201): 1120 nM
EC50 (COLO 205, COLO 205): 12500 nM
EC50 (COLO 320, COLO-320): 1400 nM
EC50 (COLO 699, COLO-699): 3050 nM
EC50 (COLO 704, COLO-704): 634 nM
EC50 (COLO-678, COLO-678): 3410 nM
EC50 (COLO-679, COLO-679): 492 nM
EC50 (COLO-741, COLO 741): 1340 nM
EC50 (COLO-829, COLO 829): 10700 nM
EC50 (COR-L23, COR-L23): 11800 nM
EC50 (COR-L105, COR-L105): 4940 nM
EC50 (COV362, COV362): 8840 nM
EC50 (COV644): 1040 nM
EC50 (CW-2, CW-2): 4950 nM
EC50 (Calu-1, Calu-1): 13000 nM
EC50 (Calu-6, Calu-6): 539 nM
EC50 (ChaGo-K-1, ChaGo-K-1): 967 nM
EC50 (Ci-1, CI-1): 193 nM
EC50 (DAN-G): 13400 nM
EC50 (DB): 290 nM
EC50 (DLD-1, DLD-1): > 30000 nM
EC50 (DMS-53, DMS 53): 8760 nM
EC50 (DMS-153, DMS 153): 405 nM
EC50 (DMS-273, DMS 273): 691 nM
EC50 (DU-4475, DU4475): 218 nM
EC50 (Daoy): 542 nM
EC50 (Detroit 562, Detroit 562): 4000 nM
EC50 (EBC-1, EBC-1): 5630 nM
EC50 (EOL1, EOL-1): 262 nM
EC50 (FaDu): 550 nM
EC50 (Fu97, FU97): 942 nM
EC50 (G-401, G-401): 402 nM
EC50 (G-402, G-402): 4100 nM
EC50 (GAMG): 2920 nM
EC50 (GB-1, GB-1): 3900 nM
EC50 (GDM-1, GDM-1): 162 nM
EC50 (GI-1, GI-1): 3270 nM
EC50 (GP2d): > 30000 nM
EC50 (H4): 790 nM
EC50 (HARA): 9030 nM
EC50 (HCC15, HCC-15): 5200 nM
EC50 (HCC44, HCC-44): 2380 nM
EC50 (HCC78, HCC-78): 2290 nM
EC50 (HCC95, HCC-95): 18400 nM
EC50 (HCC827, HCC827): 1780 nM
EC50 (HCC1143, HCC1143): 6070 nM
EC50 (HCC1187, HCC1187): 7500 nM
EC50 (HCC1588, HCC-1588): 421 nM
EC50 (HCC1806, HCC1806): 5450 nM
EC50 (HCC1954, HCC1954): 2180 nM
EC50 (HCC4006, HCC4006): 1730 nM
EC50 (HCC-56): 413 nM
EC50 (HCC-1359): 1870 nM
EC50 (HCC-1833): 3410 nM
EC50 (HCT-15, HCT-15): 1360 nM
EC50 (HD-MY-Z): 531 nM
SMILES: COCc1ccccc1NCc1ccc([C@H]2[C@@H](O)CCCc3cncn32)c(-c2ccccc2Cl)c1 [CSN5i-2, (5S,6S)-5-(2′-chloro-5-(((2-(methoxymethyl)phenyl)amino)methyl)-[1,1′-biphenyl]-2-yl)-6,7,8,9-tetrahydro-5H-imidazo[1,5-a]azepin-6-ol]
AMAX (59M): -68.225
AMAX (A101D): -76.7398
AMAX (A172): -55.6841
AMAX (A549): -65.9191
AMAX (A2780): -85.074
AMAX (ABC-1): -77.8125
AMAX (AM-38): -77.876
AMAX (AU565): -62.6343
AMAX (AsPC-1): -59.6849
AMAX (BFTC-909): -64.2004
AMAX (BICR 6): -79.1425
AMAX (BICR 16): -84.074
AMAX (Calu-6): -81.2731
AMAX (FaDu): -81.7331
AMAX (GP2d): -35.7458
AMAX (HARA): -63.4816
AMAX (HCC1143): -57.1762
AMAX (HCC1187): -75.8993
AMAX (HCC1954): -88.6962
AMAX (HD-MY-Z): -86.2175
AMAX (HEC-151): -65.4188
AMAX (HEL): -95.954
AMAX (HL-60): -90.6278
AMAX (HLC-1): -73.9563
AMAX (HLE): -90.9124
AMAX (HLF): -62.5035
AMAX (HSC-4): -75.9669
AMAX (HT-29): -64.9206
AMAX (HUP-T4): -81.3707
AMAX (Hep3B): -76.5642
EC50 (HCC70, HCC70): 2350 nM
